Legend:
[1] = in the same or very close concentration range as the anti-angiogenic activity; cited from earlier work
Experimental: In our experiments, the effects of cyclo[DKP-RGD] 1 on HUVEC activity were tested in resting conditions as well as in the presence of a culture medium enriched with growth factors known to promote angiogenesis such as VEGF, EGF, IGF-I and FGF2 or after addition of the pro-inflammatory chemokine IL-8, which has a key role in the regulation of pathological angiogenesis. According to our results, cyclo[DKP-RGD]

HUVEC [2] = assay: Proliferation assay, ELISA of BrdU incorporation; type: cell-based, human; conditions: 24 h, data not shown
Experimental: To assess HUVEC proliferation, 1×10^4 cells were seeded in duplicate in a 96-well plate and cultured for 24 h without or with cyclo[DKP-RGD] 1 at different concentrations. Proliferation was then measured by a colorimetric immunoassay, based on the ELISA measurement of bromodeoxyuridine (BrdU) incorporation during DNA synthesis. The absorbance (ABS) of the samples was determined by means of a spectrophotometer (Model 680, Bio-Rad Laboratories, Hercules, CA, USA) with wavelength set at 450 nm, and finally expressed as the difference between BrdU positive and negative samples, expressed as Optical Density (O.D.).

HUVEC [3] = assay: Cell migration, Boyden chamber assay; type: cell-based, human; conditions: for effect on spontaneous migration / effect on stimulated migration: 5 h at 37°C; for effect on stimulated migration: VEGF, EGF, IGF-I and FGF2 in bottom chamber
Experimental: Cell migration was measured by means of a Boyden chamber assay. Briefly, 1×10^5 HUVEC were seeded in the top well of the Boyden chamber, cyclo[DKP-RGD] 1 was added in the bottom or in the top compartment, and a 3 μm-pore cellulose nitrate filter was placed between the two compartments. Stimulated migration was assessed by putting VEGF, EGF, IGF-I, and FGF2 in the bottom chamber. After an incubation period of 5 h at 37°C, the filter was recovered, dehydrated, fixed, and finally stained with hematoxylin. Migration into the filter was quantified by measuring the distance (in μm) from the surface of the filter to the leading front of cells using an optical microscope (Axiolab, Carl Zeiss S.p.A. Milan, Italy).

HUVEC [4] = assay: Angiogenesis assay, network formation on Matrigel; type: cell-based, human; conditions: 5 h
Experimental: To assess angiogenic activity, HUVEC 2.5×10^4 cells were seeded in a 24-well plate coated with 100 μl/well of Matrigel previously polymerized for 1 h at 37°C. […] 1 under either resting or stimulated conditions. In some experiments IL-8 (10 nM) was used as pro-angiogenic stimulus. Network formation was evaluated by phase‒contrast microscopy using a fluorescence microscope (Axiovert 40CFL, Carl Zeiss S.p.A. Milan, Italy). Network formation was finally quantified in terms of mean number of loops per field as topological parameters and the total length of the branches. For the purpose of the analysis, loops were defined as any complete ring formed by HUVEC, while open ramifications were considered as branches. The total branch length (pixels) and the number of loops were quantified using the ImageJ image analysis software (http://rsbweb.nih.gov/ij/).

[5] = system: αv integrin subunit mRNA in HUVEC; assay: Real time PCR, mRNA of integrin subunit αv; type: cell-based, human; conditions: 1 μM, 5 h, mean ± SD of 3 experiments; for αv mRNA, 2^-Δct ×10^2: GAPDH housekeeping
Experimental: (§1) Cells were treated for 5 h in the presence or absence of 1 μM cyclo[DKP-RGD] 1 in different growth conditions, as previously described. At the end of the treatment, RNA extraction was performed using the Qiazol lysis reagent. Primers were designed by using the “Primer3 input” software (http://frodo.wi.mit.edu/cgi-bin/primer3/primer3.cgi/primer3_www.cgi) and the specificity of each primer was controlled by the BLAST software (http://blast.ncbi.nlm.nih.gov) (Table 1). Real time PCR was performed as previously reported At the end of the reaction, a melting curve analysis was carried out to check for the presence of primer-dimers. Comparison of the expression of each gene was determined by using GAPDH as housekeeping gene. Each run was analyzed in duplicate and data are finally expressed as 2^-Δct.

[6] = system: β3 integrin subunit mRNA in HUVEC; assay: Real time PCR, mRNA of integrin subunit β3; type: cell-based, human; conditions: 1 μM, 5 h, mean ± SD of 3 experiments; for β3 mRNA, 2^-Δct ×10^2: GAPDH housekeeping
Experimental: as §1

[7] = system: β5 integrin subunit mRNA in HUVEC; assay: Real time PCR, mRNA of integrin subunit β5; type: cell-based, human; conditions: 1 μM, 5 h, mean ± SD of 3 experiments; for β5 mRNA, 2^-Δct ×10^2: GAPDH housekeeping
Experimental: as §1

[8] = system: Akt phosphorylation in HUVEC; assay: Western blot analysis of Akt phosphorylation; type: cell-based, human; conditions: 5 h
Experimental: Cells grown in 60-mm dishes were treated for 5 h with 1 μM cyclo[DKP-RGD] 1. The cells were then rinsed twice in ice-cold PBS and 200 μl of the cell lysis buffer (composition: 50 mM Tris–HCl pH 7.4, 1% v/v NP40, 0.25% w/v sodium deoxycholate, 1 mM phenylmethylsulphonyl-fluoride, 1 mM Na3VO4, 1 mM EDTA, 30 mM sodium pyrophosphate, 1 mM NaF, 1 mg/ml leupeptin, 1 mg/ml pepstatin A, 1 mg/ml aprotinin and 1 mg/ml microcystin) was added to the dishes. After scraping, cells were sonicated for 10 s, centrifuged at 12000 g for 5 min at 4°C and the amount of proteins in the supernatant was measured using the BCA protein assay. For western blot analysis, 20 μg of proteins were separated by 10% SDS–PAGE at 150 V for 2 h and blotted onto […] nitrocellulose membranes at 90 mA for 16 h. The membranes were first blocked for 2 h in TRIS buffered saline solution (TBST, composition: TRIS 10 mM, NaCl 150 mM, 0.1% Tween 20) plus 5% low fat dry milk (TBSTM) and then incubated with the appropriate antibody diluted 1:1000 in TBSTM, for 16 h at 4°C under gentle agitation. The membranes were rinsed three times in TBST and then incubated for 2 h at 21°C with the secondary antibody diluted 1:10000 in TBSTM. Membranes were then rinsed three times in TBST and luminescence was detected by using the appropriate kit, and densitometric analysis was performed as previously reported.

HUVEC [9] = system: HUVEC
αvβ3 integrin = conditions: read-out: IC50, inhibition of vitronectin binding to αvβ3 integrin; cited from earlier work
Excerpt: (§2) HUVEC represent a valid in vitro model which provides seminal insights into the cellular and molecular events leading to neovascularization in response to inflammation and hypoxia in cancer, ischemic events, and in embryogenesis. As anticipated in the introduction, integrins are key actors in angiogenesis and vascular homeostasis, acting as promoters of endothelial cell-matrix interactions. It has been recognized that pharmacological inhibition of the αvβ3 subtype suppresses angiogenesis in many experimental models and αvβ3 antagonists (i.e. antibodies, peptides and peptidomimeti ...

αvβ5 integrin = conditions: read-out: IC50, inhibition of vitronectin binding to αvβ5 integrin; cited from earlier work
Excerpt: as §2

[10] = system: ovarian carcinoma IGROV-1; conditions: cited from earlier work
ovarian carcinoma SKOV3 = conditions: cited from earlier work
[11] = system: human pancreatic carcinoma PANC-1; conditions: cited from earlier work
[12] = system: human pancreatic carcinoma MIA-PaCa2; conditions: cited from earlier work
human osteosarcoma U2-OS = conditions: cited from earlier work
HUVEC [13] = assay: Cell viability by flow cytometry, annexin V/PI staining; conditions: 24 h, mean ± SD, n = 4, P > 0.05 vs control

Substance: cyclo-[Arg-Gly-Asp-D-Phe-N(Me)-Val] (head to tail) [cilengitide]
- cytotoxic activity [1]: exhibit cytotoxic activity

Substance: cyclo[DKP-RGD] [cyclo[DKP-RGD] 1]
- effect on basal proliferation (BrdU incorporation) (HUVEC [2]; basal conditions, up to 1×10^−5 M): did not significantly affect
- effect on stimulated proliferation (BrdU incorporation) (HUVEC [2]; with VEGF, EGF, IGF-I and FGF2, up to 1×10^−5 M): did not significantly affect
- concentration of the peak of the bell-shaped effect on migration (HUVEC [3]; Boyden chamber, not observed in the angiogenesis assay): about 1×10^−9 M
- effect on spontaneous migration (HUVEC [3]; compound in bottom chamber): increased
- effect on stimulated migration (HUVEC [3]; compound in bottom chamber): increased
- effect on spontaneous migration (HUVEC [3]; compound in top chamber together with cells): increased
- effect on stimulated migration (HUVEC [3]; compound in top chamber): decreased
- effect on angiogenesis induced by IL-8 (HUVEC [4]; IL-8 10 nM, P < 0.01 vs control): significantly and profoundly decreased
- effect on angiogenesis (network formation: loops, branch length) (HUVEC [4]; basal conditions): did not significantly affect
- effect on angiogenesis induced by VEGF, EGF, IGF-I, and FGF2 (HUVEC [4]; stimulated conditions, P < 0.01 vs control): significantly and profoundly decreased
- αv mRNA, 2^-Δct ×10^2 ([5]; basal conditions): 6.59 ± 5.24
- αv mRNA, Ratio vs Control ([5]; basal conditions): 1.32 ± 0.57
- αv mRNA, 2^-Δct ×10^2 ([5]; with VEGF, EGF, IGF, and FGF): 15.09 ± 10.66
- αv mRNA, Ratio vs Control ([5]; with VEGF, EGF, IGF, and FGF): 1.28 ± 0.42
- β3 mRNA, 2^-Δct ×10^2 ([6]; basal conditions): 0.91 ± 0.76
- β3 mRNA, Ratio vs Control ([6]; basal conditions): 1.08 ± 0.27
- β3 mRNA, 2^-Δct ×10^2 ([6]; with VEGF, EGF, IGF, and FGF): 1.41 ± 1.07
- β3 mRNA, Ratio vs Control ([6]; with VEGF, EGF, IGF, and FGF): 1.43 ± 0.35
- β5 mRNA, 2^-Δct ×10^2 ([7]; basal conditions): 1.52 ± 1.34
- β5 mRNA, Ratio vs Control ([7]; basal conditions): 1.08 ± 0.07
- β5 mRNA, 2^-Δct ×10^2 ([7]; with VEGF, EGF, IGF, and FGF): 1.31 ± 1.13
- β5 mRNA, Ratio vs Control ([7]; with VEGF, EGF, IGF, and FGF): 1.34 ± 0.46
- phosphorylated Akt, % of control ([8]; basal conditions, 1×10^−6 M, n = 3, P = 0.001): 53.2 ± 7.9 % of control
- phosphorylated Akt ([8]; basal conditions, 1×10^−6 M, n = 3, P = 0.001, control 16241.7 ± 1763.3): 8702.7 ± 2008.7 optical density arbitrary units
- phosphorylated Akt ([8]; with VEGF, EGF, IGF-I, and FGF2, 1×10^−6 M, n = 3, P = 0.735, control 15406.0 ± 1218.8): 15174.7 ± 663.9 optical density arbitrary units
- effect on percentage of viable, early apoptotic, late apoptotic/necrotic or necrotic cells (HUVEC [9]): did not affect
- IC50 (αvβ3 integrin): 4.5 ± 1.1 nM
- IC50 (αvβ5 integrin): 149 ± 25 nM
- cytotoxic effects [10]: lack of cytotoxic effects
- cytotoxic effects (ovarian carcinoma SKOV3): lack of cytotoxic effects
- cytotoxic effects [11]: lack of cytotoxic effects
- cytotoxic effects [12]: lack of cytotoxic effects
- cytotoxic effects (human osteosarcoma U2-OS): lack of cytotoxic effects
- viable cells (ANX-/PI-) (HUVEC [13]; basal conditions, 1×10^−6 M): 85.4 ± 3.4%
- viable cells (ANX-/PI-) (HUVEC [13]; with VEGF, EGF, IGF-I and FGF2, 1×10^−6 M): 86.8 ± 9.2%

From paper PMC4105520, “Effects of a novel cyclic RGD peptidomimetic on cell proliferation, migration and angiogenic activity in human endothelial cells” (Vascular Cell, 2014)
